Assay results: patent publication US20090286745A1, “INHIBITION OF ALPHA-SYNUCLEIN AGGREGATION” (Zapaloid Limited, priority 2006, published 2009)
Entries after “also recorded” stand apart in the source; their conditions may differ.

What follows are substances tested against α-synuclein (Homo sapiens, UniProt P37840) (assay: Kinetic thioflavin T aggregation assay of ASYN in TBS). Settings: Table 4 interactomer peptides, 50 μM ASYN, 100 μM inhibitor, 37 C, 48 hours, sigmoidal fit.
Assay type: biochemical
Description: (§1) Kinetic ThT assays were performed by adding ThT directly to the sample at time=0. A 2.5 mM ThT stock solution was made up in the buffer that was used in the aggregation experiment, filtered through a […] Millex GV filter and diluted to 62.5 μM by adding 5 μl to final sample volume of 200 μl in a 96-well polypropylene plate. The increase in fluorescence over time as a result of amyloid formation was measured in a Biotek Synergy HT plate reader at 37° C. with shaking. Cut off filters were used for exitation at 440/30 nm and emission at 485/20 nm. Readings were every 10 minutes with shaking for 500 seconds before each reading.
Aggregation assays were carried out with 50 μM ASYN and 100 μM inhibitor with 50 mM tris and 150 mM NaCl and 20 μM Thioflavin T. The reaction volume was 200 μL. Each reaction was set up in a 96 well polypropylene plate with ASYN only and buffer only controls. The reactions were incubated at 37 C with shaking for 48 hours and aggregation was monitored by reading thioflavin T fluorescence as described above.
The aggregation inhibition properties of ZP-0154 and ZP-0155 were tested in kinetic ThT assays in TBS as described above.
All peptides were tested for inhibition of ASYN aggregation in TBS as described above and the kinetic traces were fit using Zyentiafit software which fits the data to a Sigmoidal function f(x)=k+A/(1+exp(−b(t−t0))) from which the lag time, rate of aggregation and total change in ThT fluorescence may be calculated.
A kinetic thioflavin T assay to measure aggregation was set up with 50 uM α-synuclein in TBS and a molar ratio of 1:2 of α-synuclein:inhibitor). Reactions were incubated for 48 hours at 37° C. with shaking and thioflavin T fluorescence was measured every 10 minutes. The kinetic traces were fit using Zyentiafit software which fits the data to a Sigmoidal function f(x)=k+A/(1+exp(−b(t−t0))) from which the lag time, rate of aggregation and total change in ThT fluorescence may be calculated.

Row | % decrease in ThT fluorescence | % decrease in rate of aggregation | % increase in Lag phase | Substance
1 | −0.5% | −13.3% | 26.1% | Ac-hhvivv-NH2 [ZP-0169]
2 | 24.5% | 29.3% | 29.4% | Ac-hhvivt-NH2 [ZP-0170]
3 | 1.4% | −5.6% | 23.6% | Ac-qysvpi-NH2 [ZP-0204]
4 | 40.8% | 46.2% | 38.2% | NH3-pysvli-NH2 [ZP-0228]
5 | 8.7% | −15.8% | 31.4% | Ac-hhtevy-NH2 [ZP-0193]
6 | −1.7% | 6.9% | 28.1% | Ac-hhvivw-NH2 [ZP-0172]
7 | 3.3% | 8.4% | 25.9% | Ac-qypvli-NH2 [ZP-0206]
8 | 10.9% | 15.9% | 32.4% | NH3-qysvlt-NH2 [ZP-0230]
9 | 42.3% | 34.3% | 7.7% | NH3-qykvli-NH2 [ZP-0222]
10 | 15.1% | 18.4% | 32.5% | Ac-hhviva-NH2 [ZP-0158]
11 | 53.5% | 54.5% | −28.8% | Ac-qykvli-NH2 [ZP-0202]
12 | 5.5% | 3.6% | 29.7% | Ac-qpsvli-NH2 [ZP-0207]
13 | 51.1% | 44.9% | −14.4% | Ac-rysvli-NH2 [ZP-0212]
14 | 13.9% | 13.2% | 43.6% | Ac-hhvivy-NH2 [ZP-0171]
15 | 16.6% | −11.9% | 30.6% | Ac-qyspli-NH2 [ZP-0205]
16 | 24.7% | 22.8% | −22.4% | NH3-qytvli-NH2 [ZP-0221]

Row | % decrease in ThT fluorescence | % decrease in rate of aggregation | % increase in Lag phase | Substance
17 | 19.8% | 18.4% | 30.3% | Ac-hhtvva-NH2 [ZP-0180]
18 | 8.8% | 10.5% | 36.5% | Ac-hhvlva-NH2 [ZP-0160]
19 | 22.8% | −1.2% | 29.4% | Ac-hhtlva-NH2 [ZP-0181]
20 | 30.7% | 29.7% | 16.1% | Ac-hhtlvv-NH2 [ZP-0186]
21 | 0.6% | −0.6% | 30.4% | Ac-hhtivk-NH2 [ZP-0179]
22 | 11.6% | 7.7% | 38.8% | Ac-hhttvy-NH2 [ZP-0194]
23 | 19.8% | 18.6% | 36.6% | Ac-hhvvva-NH2 [ZP-0159]
24 | 17.8% | 24.3% | 33.5% | NH3-qysvlv-NH2 [ZP-0229]
25 | 27.6% | 17.5% | 3.1% | NH3-qysvli-NH2 [ZP-0215]
26 | 21.9% | 16.8% | 89.7% | Ac-hhtivv-NH2 [ZP-0175]
27 | 20.4% | 4.8% | −12.6% | Ac-drysvli-NH2 [ZP-0214]
28 | 6.3% | 6.6% | 33.4% | Ac-hhveva-NH2 [ZP-0162]
29 | −5.9% | 2.3% | 19.7% | Ac-hhvkva-NH2 [ZP-0161]
30 | 25.6% | 12.9% | 29.4% | Ac-ekysvli-NH2 [ZP-0213]
31 | −8.6% | −5.4% | 29.8% | Ac-hhvivp-NH2 [ZP-0168]

Row | Substance | % decrease in ThT fluorescence | % decrease in rate of aggregation | % increase in Lag phase
32 | Ac-hpviva-NH2 [ZP-0164] | 3.7% | −2.3% | 43.0%

Same assay, conditions: Table 5 structure stabilising peptides, 50 uM α-synuclein, 1:2 α-synuclein:inhibitor, 48 hours, 37° C., relative to α-synuclein only

Row | % decrease in ThT fluorescence | % decrease in rate of aggregation | % increase in Lag phase | Substance
33 | 6.1% | 10.9% | 16.6% | Ac-egkgegk-NH2 [ZP-0241]
34 | 4.3% | 2.7% | 11.2% | Ac-kgegk-NH2 [ZP-0231]
35 | 18.5% | −0.6% | 23.4% | Ac-rdr-NH2 [ZP-0240]
36 | 12.2% | 6.7% | 10.7% | Ac-rgdgd-NH2 [ZP-0247]

Same assay, conditions: structure stabilising peptides, 48 hours

Row | endpoint thioflavin T fluorescence (in words) | Substance
37 | significant decrease | Ac-rdr-NH2 [ZP-0240]

Same assay, conditions: timeframe of the assay 48 h, 50 μM ASYN, 100 μM inhibitor

Row | increase in ThT signal compared to ASYN only | Substance
38 | No significant increase | NMP-NMP-NMP-kvfgtaa-NH2 [ZP-0155]
39 | No significant increase | NMP-NMP-NMP-NMP-kvfgtaa-NH2 [ZP-0154]

The substances below were run against T1, ASYN (Homo sapiens, UniProt P37840) (assay: Kinetic ThT aggregation assay in PBS pH 7.4). Settings: FIG. 13; PBS; asyn:inhibitor 1:2.
Assay type: biochemical
Description: The molar ratio of asyn:inhibitor is 1:2. For both, ASYN aggregation inhibition is observed as an increased lag time along with decreased endpoint ThT fluorescence.
as §1
For compounds ZP-0089 to ZP-0094, a kinetic experiment was performed to test the inhibition properties in PBS pH 7.4 as described above. Samples were assayed in triplicate and each sample contained 50 μl of 200 μM ASYN and 50 μl of 400 μM inhibitor was added to 100 μl PBS in a well and mixed to yield a 200 μl sample volume containing 50 μM ASYN and 100 μM inhibitor. Control wells contained either buffer only or ASYN only.

Row | endpoint ThT fluorescence | lag phase / lag time | rate of amyloid formation | Substance
40 | decreased | large increase; also recorded: increased | decreased | L-DOPA-sgvylvg-NH2 [ZP-0089]
41 | decreased | increased | decreased | L-DOPA-gpvntvq-NH2 [ZP-0090]

Same assay, conditions: endpoint; legend prints Tris-Cl pH 7.4 at 37° C. with 100 mg/ml PEG 3350

Row | ThT signal compared to ASYN (FIG. 12) | Substance
42 | significantly decreased | L-DOPA-sgvylvg-NH2 [ZP-0089]
43 | significantly decreased | L-DOPA-gpvntvq-NH2 [ZP-0090]

Each substance was assayed against T1, ASYN (assay: Kinetic ThT aggregation assay in 25 mM Tris-Cl pH 7.4 with 100 mg/ml PEG 3350). Settings: Tris-Cl pH 7.4; 48 hours; average over the named inhibitors.
Assay type: biochemical
Description: as §1
For compounds ZP-0089 to ZP-0094, a kinetic ThT experiment was performed in 25 mM Tris-Cl at 37° C. to test the inhibition properties of ZP-0089 to ZP-0094 in Tris-Cl pH 7.4. Each 200 μl sample on the 96 well-plate contained 50 μM ASYN, 100 μM inhibitor and 100 mg/ml PEG along with buffer only and ASYN only controls. Samples were measured in triplicate. ThT fluorescence over time was monitored for 48 hours.

Row | decrease in the endpoint ThT reading | Substance
44 | 18±2% | NH2-sgvylvg-COOH [ZP-0092]
45 | 18±2% | Ac-sgvylvg-COOH [ZP-0091]
46 | 18±2% | NH2-sgvylvg-NH2 [ZP-0094]

Same assay, conditions: both buffer conditions (Tris-Cl pH 7.4 and PBS); 50 μM ASYN, 100 μM inhibitor

Row | inhibition compared to ASYN alone | Substance
47 | > 60% | L-DOPA-sgvylvg-NH2 [ZP-0089]
48 | > 30% | L-DOPA-gpvntvq-NH2 [ZP-0090]

Same assay, conditions: endpoint; Tris-Cl pH 7.4 at 37° C. with 100 mg/ml PEG 3350; 50 μM ASYN, 100 μM inhibitor

Row | ThT signal compared to ASYN (FIG. 11) | Substance
49 | significantly decreased | L-DOPA-sgvylvg-NH2 [ZP-0089]
50 | significantly decreased | L-DOPA-gpvntvq-NH2 [ZP-0090]
